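Where inhibition never reached the appropriate level, the endpoint shown equals the highest concentration tested. Otherwise, values were interpolated linearly from a five-concentration, 48-hour dose response in 96-well plates. GI50 = concentration required for 50% inhibition of growth. TGI is the concentration that stops growth completely.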
How the values were obtained:
Test in all cases: growth of human tumour cells (NCI), 48 h
U251 CNS = test system: U251 CNS
A549 NSCLC = test system: A549 NSCLC
UACC-62 melanoma = test system: UACC-62 melanoma
RXF 393 renal = test system: RXF 393 renal
ACHN renal = test system: ACHN renal
DU-145 prostate = test system: DU-145 prostate
786-0 renal = test system: 786-0 renal
UO-31 renal = test system: UO-31 renal
UACC-257 melanoma = test system: UACC-257 melanoma
SK-MEL-5 melanoma = test system: SK-MEL-5 melanoma
M14 melanoma = test system: M14 melanoma
HT29 colon = test system: HT29 colon
LOX IMVI melanoma = test system: LOX IMVI melanoma
OVCAR-8 ovarian = test system: OVCAR-8 ovarian
SK-OV-3 ovarian = test system: SK-OV-3 ovarian
MDA-MB-435 = test system: MDA-MB-435
HOP-92 NSCLC = test system: HOP-92 NSCLC
NCI-H460 lung = test system: NCI-H460 lung
SN12C renal = test system: SN12C renal
RPMI-8226 leukemia = test system: RPMI-8226 leukemia
NCI-H522 lung = test system: NCI-H522 lung
OVCAR-4 ovarian = test system: OVCAR-4 ovarian
COLO 205 colon = test system: COLO 205 colon
SR leukemia = test system: SR leukemia
MALME-3M melanoma = test system: MALME-3M melanoma
K-562 leukemia = test system: K-562 leukemia
NCI-H23 lung = test system: NCI-H23 lung
IGROV1 ovarian = test system: IGROV1 ovarian
HOP-62 NSCLC = test system: HOP-62 NSCLC
SK-MEL-28 melanoma = test system: SK-MEL-28 melanoma
SF-539 CNS = test system: SF-539 CNS
EKVX NSCLC = test system: EKVX NSCLC
MDA-MB-231 breast = test system: MDA-MB-231 breast
T-47D breast = test system: T-47D breast
KM12 colon = test system: KM12 colon
PC-3 prostate = test system: PC-3 prostate
OVCAR-3 ovarian = test system: OVCAR-3 ovarian
HL-60(TB) leukemia = test system: HL-60(TB) leukemia
CAKI-1 renal = test system: CAKI-1 renal
MOLT-4 leukemia = test system: MOLT-4 leukemia
TK-10 renal = test system: TK-10 renal
SW-620 colon = test system: SW-620 colon
OVCAR-5 ovarian = test system: OVCAR-5 ovarian
CCRF-CEM leukemia = test system: CCRF-CEM leukemia
SK-MEL-2 melanoma = test system: SK-MEL-2 melanoma
SNB-19 CNS = test system: SNB-19 CNS
BT-549 breast = test system: BT-549 breast
HS 578T breast = test system: HS 578T breast
NCI/ADR-RES ovarian = test system: NCI/ADR-RES ovarian
SF-295 CNS = test system: SF-295 CNS
HCT-116 colon = test system: HCT-116 colon
SF-268 CNS = test system: SF-268 CNS
SNB-75 CNS = test system: SNB-75 CNS
HCC-2998 colon = test system: HCC-2998 colon
NCI-H226 lung = test system: NCI-H226 lung
HCT-15 colon = test system: HCT-15 colon
MCF7 breast = test system: MCF7 breast

C/C=C/[C@@H]1OC(=O)C2=C[C@@H](O)[C@@H](/C=C/C)O[C@H]21
GI50 (U251 CNS): 14.6 µM | TGI (U251 CNS): 35.6 µM | GI50 (A549 NSCLC): 15.8 µM | TGI (A549 NSCLC): 34 µM | GI50 (UACC-62 melanoma): 13.9 µM | TGI (UACC-62 melanoma): 28.9 µM | GI50 (RXF 393 renal): 6.27 µM | TGI (RXF 393 renal): 28.8 µM | GI50 (ACHN renal): 2.34 µM | TGI (ACHN renal): 8.01 µM | GI50 (DU-145 prostate): 0.989 µM | TGI (DU-145 prostate): 4.83 µM | GI50 (786-0 renal): 2.53 µM | TGI (786-0 renal): 8.36 µM | GI50 (UO-31 renal): 3.05 µM | TGI (UO-31 renal): > 35.7 µM | GI50 (UACC-257 melanoma): 17.7 µM | TGI (UACC-257 melanoma): 33 µM | GI50 (SK-MEL-5 melanoma): 9.03 µM | TGI (SK-MEL-5 melanoma): 23.8 µM | GI50 (M14 melanoma): 3.23 µM | TGI (M14 melanoma): 8.12 µM | GI50 (HT29 colon): 2.09 µM | TGI (HT29 colon): 5.89 µM | GI50 (LOX IMVI melanoma): 6.44 µM | TGI (LOX IMVI melanoma): 18.5 µM | GI50 (OVCAR-8 ovarian): 13.4 µM | TGI (OVCAR-8 ovarian): 34.1 µM | GI50 (SK-OV-3 ovarian): 20.5 µM | TGI (SK-OV-3 ovarian): 36.6 µM | GI50 (MDA-MB-435): 10.4 µM | TGI (MDA-MB-435): 25.5 µM | GI50 (HOP-92 NSCLC): 2.4 µM | TGI (HOP-92 NSCLC): 9.12 µM | GI50 (NCI-H460 lung): 25.6 µM | TGI (NCI-H460 lung): 63.7 µM | GI50 (SN12C renal): 3.76 µM | TGI (SN12C renal): 12.6 µM | GI50 (RPMI-8226 leukemia): 1.14 µM | TGI (RPMI-8226 leukemia): 3.76 µM | GI50 (NCI-H522 lung): 1.93 µM | GI50 (OVCAR-4 ovarian): 6.96 µM | TGI (OVCAR-4 ovarian): 27.8 µM | GI50 (COLO 205 colon): 2.2 µM | TGI (COLO 205 colon): 6.9 µM | GI50 (SR leukemia): 16.8 µM | TGI (SR leukemia): > 100 µM | GI50 (MALME-3M melanoma): 1.73 µM | TGI (MALME-3M melanoma): 5.56 µM | GI50 (K-562 leukemia): 1.84 µM | GI50 (NCI-H23 lung): 3.08 µM | TGI (NCI-H23 lung): 23.3 µM | GI50 (IGROV1 ovarian): 7.62 µM | TGI (IGROV1 ovarian): > 56 µM | GI50 (HOP-62 NSCLC): 20 µM | TGI (HOP-62 NSCLC): 36.2 µM | GI50 (SK-MEL-28 melanoma): 6.38 µM | TGI (SK-MEL-28 melanoma): 12.6 µM | GI50 (SF-539 CNS): 1.1 µM | TGI (SF-539 CNS): 3.49 µM | GI50 (EKVX NSCLC): 7.26 µM | TGI (EKVX NSCLC): 21.2 µM | GI50 (MDA-MB-231 breast): 12.9 µM | TGI (MDA-MB-231 breast): 29.3 µM | GI50 (T-47D breast): 3.3 µM | TGI (T-47D breast): 13 µM | GI50 (KM12 colon): 16.9 µM | TGI (KM12 colon): 38.9 µM | GI50 (PC-3 prostate): 13.9 µM | TGI (PC-3 prostate): 28.2 µM | GI50 (OVCAR-3 ovarian): 2.45 µM | TGI (OVCAR-3 ovarian): 13.1 µM | GI50 (HL-60(TB) leukemia): 7.47 µM | TGI (HL-60(TB) leukemia): > 100 µM | GI50 (CAKI-1 renal): 1.71 µM | TGI (CAKI-1 renal): 3.81 µM | GI50 (MOLT-4 leukemia): 1.73 µM | TGI (MOLT-4 leukemia): > 19.7 µM | GI50 (TK-10 renal): 1.96 µM | TGI (TK-10 renal): 7.04 µM | GI50 (SW-620 colon): 0.989 µM | TGI (SW-620 colon): 3.13 µM | GI50 (OVCAR-5 ovarian): 13.6 µM | TGI (OVCAR-5 ovarian): 35 µM | GI50 (CCRF-CEM leukemia): 0.271 µM | TGI (CCRF-CEM leukemia): 5.77 µM | GI50 (SK-MEL-2 melanoma): 23.5 µM | TGI (SK-MEL-2 melanoma): > 58.6 µM | GI50 (SNB-19 CNS): 16.6 µM | TGI (SNB-19 CNS): 33.8 µM | GI50 (BT-549 breast): 2.31 µM | TGI (BT-549 breast): 8.67 µM | GI50 (HS 578T breast): 17.1 µM | TGI (HS 578T breast): 41.2 µM | GI50 (NCI/ADR-RES ovarian): 19.2 µM | TGI (NCI/ADR-RES ovarian): > 56.2 µM | GI50 (SF-295 CNS): 18 µM | TGI (SF-295 CNS): 44.8 µM | GI50 (HCT-116 colon): 1.3 µM | TGI (HCT-116 colon): 3.94 µM | GI50 (SF-268 CNS): 24.1 µM | TGI (SF-268 CNS): > 82.5 µM | GI50 (SNB-75 CNS): 14.6 µM | TGI (SNB-75 CNS): 32.4 µM | GI50 (HCC-2998 colon): 28.3 µM | TGI (HCC-2998 colon): 55 µM | GI50 (NCI-H226 lung): 6.17 µM | TGI (NCI-H226 lung): 13.9 µM | GI50 (HCT-15 colon): 2.82 µM | TGI (HCT-15 colon): 17.2 µM | GI50 (MCF7 breast): 14.4 µM | TGI (MCF7 breast): > 100 µM

Reference: PubChem BioAssay (NCI)
